From article PMC9920808, “Impact of the Substitution Pattern at the Basic Center and Geometry of the Amine Fragment on 5-HT6 and D3R Affinity in the 1H-Pyrrolo[3,2-c]quinoline Series” (Molecules, 2023)
Where a name gives a salt, the structure may show the parent alone. Read-outs that look alike come from different tables or passages of the source.

Columns and labels:
D2R = settings: Figure 1; ref 25 (SB737050), ref 19 (I), ref 26 (PZ-1643), ref 27 (CPPQ); cited from earlier work
human 5-HT6R [1] = target: T1, human 5-HT6R (Homo sapiens, UniProt P50406); test: [3H]-LSD radioligand binding assay at 5-HT6R in HEK293 cell membranes; settings: HEK293 cells with stable expression of human 5-HT6R, mean of at least three experiments (SEM ≤ 18%)
T1 construct: expressed in transfected cells
T1 sequence (P50406 whole entry): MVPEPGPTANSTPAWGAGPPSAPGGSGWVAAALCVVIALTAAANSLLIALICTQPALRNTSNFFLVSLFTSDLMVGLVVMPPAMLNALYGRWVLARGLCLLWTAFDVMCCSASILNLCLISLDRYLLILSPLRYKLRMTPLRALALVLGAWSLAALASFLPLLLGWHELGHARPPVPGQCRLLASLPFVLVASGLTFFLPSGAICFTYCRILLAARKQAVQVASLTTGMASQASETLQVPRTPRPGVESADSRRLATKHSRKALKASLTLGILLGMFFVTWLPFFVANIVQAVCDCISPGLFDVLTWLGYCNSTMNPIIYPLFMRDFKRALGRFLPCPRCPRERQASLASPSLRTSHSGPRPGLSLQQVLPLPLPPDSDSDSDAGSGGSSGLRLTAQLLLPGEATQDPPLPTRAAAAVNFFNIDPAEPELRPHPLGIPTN
Protocol: (§1) The biological evaluation was initiated by assessing the affinity of the compounds for 5-HT6R in the [^3H]-LSD radioligand binding assay. Experiments were performed in a stable HEK293 cell line expressing the human 5-HT6R [10]. […] Experiments were performed in Chinese hamster ovary (CHO) cells with the stable expression of human D3R (Eurofins, Celle-L’Evescault, France).
HEK293 cells with stable expression of human 5-HT6 receptors (prepared with the use of Lipofectamine 2000) were maintained at 37 °C in a humidified atmosphere with 5% CO2 and grown in Dulbecco’s modified Eagle medium containing 10% dialyzed fetal bovine serum and 500 μg/mL G418 sulfate. For membrane preparation, cells were sub-cultured in 150 cm^2 flasks, grown to 90% confluence, washed twice with phosphate buffered saline (PBS), prewarmed to 37 °C, and pelleted by centrifugation (200× g) in PBS containing 0.1 mM EDTA and 1 mM dithiothreitol. Prior to membrane preparation, pellets were stored at −80 °C.
The cell pellets were thawed and homogenized in 10 volumes of assay buffer using an Ultra Turrax tissue homogenizer(IKA, Warsaw, Poland), centrifuged twice at 35,000× g for 15 min at 4 °C, and incubated for 15 min at 37 °C between centrifugation rounds. The composition of the assay buffers was 50 mM Tris HCl, 0.5 mM EDTA, and 4 mM MgCl2. The assays were incubated in a total volume of 200 μL in 96-well microtiter plates for 1 h at 37 °C. The process of equilibration was terminated by rapid filtration through Unifilter plates with a 96-well cell harvester, and radioactivity retained on the filters was quantified on a Microbeta plate reader (PerkinElmer, Waltham, MA, USA). For displacement studies, the assay samples contained as radioligands (PerkinElmer, USA) 2 nM [^3H]-LSD (83.6 Ci/mmol). Nonspecific binding was defined with 10 μM methiothepine. Each compound was tested in triplicate at 7 concentrations (10^−10 to 10^−4 M). The inhibition constants (Ki) were calculated from the Cheng−Prusoff equation [30]. […]

D3R = target: D3R; set-up: method as in earlier work; settings: Figure 1; ref 25 (SB737050), ref 19 (I), ref 26 (PZ-1643); cited from earlier work
5-HT6R = settings: Figure 1; ref 25 (SB737050), ref 19 (I), ref 26 (PZ-1643), ref 27 (CPPQ); cited from earlier work
human D3R [2] = target: T2, human D3R (Homo sapiens, UniProt P35462); test: D3R screening binding with [3H]-methylspiperone in CHO cells (Eurofins); settings: percentage displacement at 10^-6 M; CHO cells with stable expression of human D3R; read-out: %inh Binding to D3R @1μM
T2 sequence (P35462 whole entry): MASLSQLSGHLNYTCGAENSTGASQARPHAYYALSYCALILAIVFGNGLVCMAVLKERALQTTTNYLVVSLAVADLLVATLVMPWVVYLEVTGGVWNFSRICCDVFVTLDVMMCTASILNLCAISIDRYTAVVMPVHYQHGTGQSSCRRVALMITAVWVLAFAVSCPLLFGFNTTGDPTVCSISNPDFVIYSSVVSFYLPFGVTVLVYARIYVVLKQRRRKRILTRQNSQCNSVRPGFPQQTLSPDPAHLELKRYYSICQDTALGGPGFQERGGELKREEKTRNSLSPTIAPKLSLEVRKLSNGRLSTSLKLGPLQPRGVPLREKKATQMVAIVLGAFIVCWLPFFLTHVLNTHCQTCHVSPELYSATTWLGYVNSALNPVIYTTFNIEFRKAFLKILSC
Protocol: as §1

human serotonin 5-HT6R = target: T3, human serotonin 5-HT6R (Homo sapiens, UniProt P50406); test: cAMP cellular assay, inhibition of 5-CT-induced cAMP production in 1321N1 cells; assay type: cell-based; settings: 1321N1 cells expressing human 5-HT6R; cAMP production induced by 5-CT (1000 nM); read-out: Kb, antagonist properties at 5-HT6R
T3 construct: host or cells: 1321N1 (frozen recombinant cells)
T3 sequence (P50406 whole entry): as the sequence (P50406 whole entry) above
Protocol: The experiments were performed in 1321N1 cells expressing the human serotonin 5-HT6R.
The functional properties of compounds on 5-HT6R were evaluated using its ability to inhibit cAMP production induced by 5-CT (1000 nM), a 5-HT6R agonist. The compound was tested in triplicate at 8 concentrations (10^−11 to 10^−4 M). The level of adenylyl cyclase activity was measured using frozen recombinant 1321N1 cells expressing the human serotonin 5-HT6R (PerkinElmer). Total cAMP was measured using the LANCE cAMP detection kit (PerkinElmer), according to the manufacturer’s directions. For quantification of cAMP levels, cells (5 μL) were incubated with a mixture of compounds (5 μL) for 30 min at room temperature in 384-well white opaque microtiter plates. After incubation, the reaction was stopped, and cells were lysed by the addition of 10 μL of working solution (5 μL of Eu-cAMP and 5 μL of ULight-anti-cAMP). The assay plate was incubated for 1 h at room temperature. Time-resolved fluorescence resonance energy transfer (TR-FRET) was detected by an Infinite M1000 Pro (Tecan, Männedorf, Switzerland) using instrument settings from LANCE cAMP detection kit manual(PerkinElmer, Waltham, MA, USA).

human 5-HT6R [3] = target: T1, human 5-HT6R; test: 5-HT6R constitutive activity at Gs signaling in NG108-15 cells (CAMYEL BRET cAMP sensor); assay type: cell-based; settings: NG108-15 cells transiently expressing 5-HT6R; Figure 3
Protocol: The experiments were performed in 1321N1 cells expressing the human serotonin 5-HT6R. […] Neuroblastoma cells (NG108-15) were grown in DMEM (Dulbecco’s modified Eagle’s medium) supplemented with 10% heat-inactivated fetal bovine serum, 2% HAT (hypoxanthine/aminopterin/thymidine, Life technologies), glutamine, and antibiotics at 37 °C under 5% of CO2. cAMP measurement was performed in cells transiently transfected with a construct expressing the CAMYEL bioluminescence resonance energy transfer (BRET) sensor for cAMP [44] (3 μg DNA/million cells) alone or in combination with a plasmid encoding the human 5-HT6R (0.5 μg DNA/million cells). Transfection of the NG108-15 cells was conducted in suspension using Lipofectamine 2000, according to the manufacturer’s protocol. Plasmids and lipofectamine were diluted in Opti-MEM Reduced Serum Media (Gibco) and incubated at room temperature for 20 min before being added to the cells. […] Coelanterazine H (Molecular Probes) was added in each well at a final concentration of 5 μM and incubated at room temperature for 5 min before measuring BRET in a Mithras LB 940 plate reader (Berthold Technologies, Bad Wildbad, Germany). The decrease in CAMYEL BRET induced by the coexpression of the probe with the 5-HT6R as compared to the BRET measured in cells expressing the probe alone was used as an index of the 5-HT6R constitutive activity.

human 5-HT6R [4] = target: T1, human 5-HT6R; set-up: method as in PMID 30896921; settings: HEK293 cells, data taken from ref 26; cited from earlier work
human D3R [5] = target: T2, human D3R; set-up: method as in PMID 30896921; settings: data taken from ref 26, cited from earlier work

For `O=S(=O)(c1cccc(Cl)c1)n1ccc2c(N[C@H]3CCNC3)nc3ccccc3c21` [CPPQ, (S)-1-((3-chlorophenyl)sulfonyl)-N-(pyrrolidin-3-yl)-1H-pyrrolo[3,2-c]quinolin-4-amine], the “pKi D2R” value (D2R) is given as 6.0.
`CCN1CC[C@H](CNc2nc3ccccc3c3c2ccn3S(=O)(=O)c2cccc(Cl)c2)C1` [Compound 15, (R)-1-((3-chlorophenyl)sulfonyl)-N-((1-ethylpyrrolidin-3-yl)methyl)-1H-pyrrolo[3,2-c]quinolin-4-amine hydrochloride] gave a Ki (human 5-HT6R [1]) of 0.038 µM.
In the case of `COc1cc2c(cc1NS(=O)(=O)c1ccc(-c3cccs3)cc1)CCN(C)CC2` [SB737050], the “pKi D2R” value (D2R) is given as 7.7, the “pKi D3R” value (D3R) is given as 7.9 and the “pKi 5-HT6R” value (5-HT6R) is given as 9.0.
For `CCN1CCC[C@@H]1CNc1nc2ccccc2c2c1ccn2S(=O)(=O)c1cccc(Cl)c1.Cl` [Compound 13, (R)-1-((3-chlorophenyl)sulfonyl)-N-((1-ethylpyrrolidin-2-yl)methyl)-1H-pyrrolo[3,2-c]quinolin-4-amine hydrochloride], the inhibition at 1 µM (human D3R [2]) was 58%, the Ki (human 5-HT6R [1]) was 0.027 µM and the Kb (human serotonin 5-HT6R) was 0.0012 µM. For the same compound, the “Impact on 5-HT6R-operated Gs signaling (constitutive activity)” value (human 5-HT6R [3]) was “neutral antagonist”.
`COCCCN1CC[C@H](Nc2nc3ccccc3c3c2ccn3S(=O)(=O)c2cccc(Cl)c2)C1` [Compound 11, (S)-1-((3-chlorophenyl)sulfonyl)-N-(1-(3-methoxypropyl)pyrrolidin-3-yl)-1H-pyrrolo[3,2-c]quinolin-4-amine] gave an inhibition at 1 µM (human D3R [2]) of 25% and a Ki (human 5-HT6R [1]) of 0.017 µM.
Compound `CCN1CC[C@@H](CNc2nc3ccccc3c3c2ccn3S(=O)(=O)c2cccc(Cl)c2)C1` [Compound 16, (S)-1-((3-chlorophenyl)sulfonyl)-N-((1-ethylpyrrolidin-3-yl)methyl)-1H-pyrrolo[3,2-c]quinolin-4-amine hydrochloride] has a Ki (human 5-HT6R [1]) of 0.064 µM.
Work on `CC(C)CN1CCC[C@@H]1CNc1nc2ccccc2c2c1ccn2S(=O)(=O)c1cccc(Cl)c1.Cl` [Compound 17, (R)-1-((3-chlorophenyl)sulfonyl)-N-((1-isobutylpyrrolidin-2-yl)methyl)-1H-pyrrolo[3,2-c]quinolin-4-amine hydrochloride] yielded an inhibition at 1 µM (human D3R [2]) of 57%, a Ki (human 5-HT6R [1]) of 0.027 µM and a Kb (human serotonin 5-HT6R) of 0.0038 µM. For the same compound, the “Impact on 5-HT6R-operated Gs signaling (constitutive activity)” value (human 5-HT6R [3]) was “neutral antagonist”.
Compound `C[C@H](O)CN1CC[C@H](Nc2nc3ccccc3c3c2ccn3S(=O)(=O)c2cccc(Cl)c2)C1` [Compound 8, (S)-1-((S)-3-((1-((3-chlorophenyl)sulfonyl)-1H-pyrrolo[3,2-c]quinolin-4-yl)amino)pyrrolidin-1-yl)propan-2-ol] has a Ki (human 5-HT6R [1]) of 0.011 µM.
For `O=S(=O)(c1cccc(Cl)c1)n1ccc2c(NC[C@@H]3CCCN3CCO)nc3ccccc3c21` [Compound 20, (S)-2-(2-(((1-((3-chlorophenyl)sulfonyl)-1H-pyrrolo[3,2-c]quinolin-4 yl)amino)methyl)pyrrolidin-1-yl)ethan-1-ol hydrochloride], the Ki (human 5-HT6R [1]) was 0.077 µM.
`COCCCN1CCC[C@@H]1CNc1nc2ccccc2c2c1ccn2S(=O)(=O)c1cccc(Cl)c1` [Compound 21, (R)-1-((3-chlorophenyl)sulfonyl)-N-((1-(3-methoxypropyl)pyrrolidin-2-yl)methyl)-1H-pyrrolo[3,2-c]quinolin-4-amine] gave a Ki (human 5-HT6R [1]) of 0.087 µM.
For `CN1Cc2c(ccc3c2ccn3S(=O)(=O)c2c(Cl)nc3sccn23)CC1CCO` (centres unmarked) [I], the “pKi D2R” value (D2R) is listed as 7.4, the “pKi D3R” value (D3R) is listed as 9.0 and the “pKi 5-HT6R” value (5-HT6R) is listed as 8.7.
Work on `C[C@@H](O)CN1CC[C@H](Nc2nc3ccccc3c3c2ccn3S(=O)(=O)c2cccc(Cl)c2)C1` [Compound 9, (R)-1-((S)-3-((1-((3-chlorophenyl)sulfonyl)-1H-pyrrolo[3,2-c]quinolin-4-yl)amino)pyrrolidin-1-yl)propan-2-ol] yielded an inhibition at 1 µM (human D3R [2]) of 54% and a Ki (human 5-HT6R [1]) of 0.006 µM.
For `CC(C)CN1CCC[C@H]1CNc1nc2ccccc2c2c1ccn2S(=O)(=O)c1cccc(Cl)c1` [Compound 18, (S)-1-((3-chlorophenyl)sulfonyl)-N-((1-isobutylpyrrolidin-2-yl)methyl)-1H-pyrrolo[3,2-c]quinolin-4-amine hydrochloride], the Ki (human 5-HT6R [1]) was 0.065 µM.
In the case of `CC(C)CN1CC[C@H](Nc2nc3ccccc3c3c2ccn3S(=O)(=O)c2cccc(Cl)c2)C1` [PZ-1643], the Ki (human 5-HT6R [4]) is listed as 0.027 µM, the “pKi D2R” value (D2R) is listed as 6.5 and the “pKi D3R” value (D3R) is listed as 8.2. For the same compound, the “pKi 5-HT6R” value (5-HT6R) was 7.6, the “%inh Binding to D3R @1μM” value (human D3R [5]; percentage displacement at 10^-6 M) was 98% and the Ki (human D3R [5]; printed in parentheses after %inh, read-out: D3R affinity value in parentheses (Ki)) was 0.007 µM.
With `CCN1CCC[C@H]1CNc1nc2ccccc2c2c1ccn2S(=O)(=O)c1cccc(Cl)c1` [Compound 14, (S)-1-((3-chlorophenyl)sulfonyl)-N-((1-ethylpyrrolidin-2-yl)methyl)-1H-pyrrolo[3,2-c]quinolin-4-amine hydrochloride] the Ki (human 5-HT6R [1]) was 0.072 µM.
In the case of `O=S(=O)(c1cccc(Cl)c1)n1ccc2c(NC[C@H]3CCCN3CCO)nc3ccccc3c21` [Compound 19, (R)-2-(2-(((1-((3-chlorophenyl)sulfonyl)-1H-pyrrolo[3,2-c]quinolin-4 yl)amino)methyl)-pyrrolidin-1-yl)ethan-1-ol hydrochloride], the Ki (human 5-HT6R [1]) is reported as 0.058 µM.
`O=S(=O)(c1cccc(Cl)c1)n1ccc2c(N[C@H]3CCN(CCC(F)(F)F)C3)nc3ccccc3c21` [Compound 12, (S)-1-((3-chlorophenyl)sulfonyl)-N-(1-(3,3,3-trifluoropropyl)pyrrolidin-3-yl)-1H-pyrrolo[3,2-c]quinolin-4-amine] gave a Ki (human 5-HT6R [1]) of 0.556 µM.
`O=S(=O)(c1cccc(Cl)c1)n1ccc2c(N[C@H]3CCN(CCO)C3)nc3ccccc3c21` [Compound 10, (S)-2-(3-((1-((3-chlorophenyl)sulfonyl)-1H-pyrrolo[3,2-c]quinolin-4-yl)amino)pyrrolidin-1-yl)ethan-1-ol] gave a Ki (human 5-HT6R [1]) of 0.084 µM.
